This passage reports inhibition and IC50 results from patent US4786755A, “Diphenic acid monoamides” (Warner-Lambert Company, priority 1986, dated 1988).

Assay [1] concerns Isolated Guinea Pig Lung Parenchyma. The assay can be described thus: Smooth Muscle Receptor Agonism-Antagonism Activity Evaluations In Vitro (IVAS), LTC4-induced contraction. The assay is classed as cell-based. The following applies: Cavia porcellus, LTC4-induced contraction.
Description: Smooth Muscle Receptor Agonism-Antagonism Activity Evaluations In Vitro (IVAS) Isolated Guinea Pig Lung Parenchyma
The potency of a test compound for receptor stimulation or antagonism, for example, can easily be determined since the concentration of the compound to which the muscle cell, or specialized responsive area on this cell, is exposed can be easily controlled and correlated with the recorded activity of muscle contraction or relaxation.
The procedures described herein are specifically concerned with the definition of a test drug action on isolated lung strips. Drug action is characterized either by an action per se on the tissues or by interaction with known smooth muscle receptor stimulants or antagonists.
Usually, the tests will be used to evaluate the ability of a test compound to antagonize the contraction induced by standard agonists in this case LTC4. A relative potency is derived by comparison with one of the standard blocking drugs. In caution, relative potencies of test compounds to known standards are valid only if full dose response curves are generated and the compound compared generate parallel dose/response curves with common maxima. Appropriate "within-trial" comparisons are also necessary.
Molecular antagonists compete with the agonist for the receptor. […] A physiological antagonist produces a response by action on a different receptor that causes an effect in opposition to the agonism.
A permanent isolated bath system is used which facilitates the vertical suspension of a segment of tissue in a small volume of a specific nutritive buffer. Frittered glass terminals provide dispersed bubbles of 95% oxygen and 5% carbon dioxide at the base of the individual tissue baths and the buffer reservoir. All baths and the reservoir are double-jacketed and water at 37° C. is circulated through the jacket of the baths to provide stable temperature regulation. The baths are arranged so that fresh solution from the reservoir passes through a jacketed glass coil to the base of the bath. The bubbling gas stirs the bath solution. During equilibration, fresh solution enters and excess solution is allowed to overflow. Unless a particular drug is required throughout the experiment and it is incorporated in the buffer, individual drugs are introduced directly into the bath by long hypodermic needles to the base of the bath without disturbing the tissue. Drugs are removed by rapidly draining the tissue bath from the bottom and refilling. Tissues are washed a minimum of six times. The emptying and refilling sequence takes only five seconds.
The contraction and relaxation of the smooth muscle preparation can be recorded either isotonically (change in length) or isometrically (change in tension). Isometric transducers are more sensitive and proportional. Isometric contractions are recorded electronically using Grass FT 0.03C force displacement transducers and Beckman Dynagraph recorders. The tissue is suspended vertically with one end of the segment anchored to the bottom of the bath and the other end attached to the mechanical electrical transducer muscle level. The electrical output of this transducer moves a pen on a moving chart in proportion to the force displacement.
Lung tissue is obtained from normal male guinea pigs. The heart and lungs are removed as a unit, placed in buffer, and the lungs are perfused with buffer by the spontaneously beating heart for several minutes.
Assay [2] concerns the target T1, human leukocyte 5-lipoxygenase (Homo sapiens, UniProt P09917).
T1 construct: endogenous in cells; host or cells: leukocytes from fresh blood of normal adult men
T1 sequence (P09917 1-674): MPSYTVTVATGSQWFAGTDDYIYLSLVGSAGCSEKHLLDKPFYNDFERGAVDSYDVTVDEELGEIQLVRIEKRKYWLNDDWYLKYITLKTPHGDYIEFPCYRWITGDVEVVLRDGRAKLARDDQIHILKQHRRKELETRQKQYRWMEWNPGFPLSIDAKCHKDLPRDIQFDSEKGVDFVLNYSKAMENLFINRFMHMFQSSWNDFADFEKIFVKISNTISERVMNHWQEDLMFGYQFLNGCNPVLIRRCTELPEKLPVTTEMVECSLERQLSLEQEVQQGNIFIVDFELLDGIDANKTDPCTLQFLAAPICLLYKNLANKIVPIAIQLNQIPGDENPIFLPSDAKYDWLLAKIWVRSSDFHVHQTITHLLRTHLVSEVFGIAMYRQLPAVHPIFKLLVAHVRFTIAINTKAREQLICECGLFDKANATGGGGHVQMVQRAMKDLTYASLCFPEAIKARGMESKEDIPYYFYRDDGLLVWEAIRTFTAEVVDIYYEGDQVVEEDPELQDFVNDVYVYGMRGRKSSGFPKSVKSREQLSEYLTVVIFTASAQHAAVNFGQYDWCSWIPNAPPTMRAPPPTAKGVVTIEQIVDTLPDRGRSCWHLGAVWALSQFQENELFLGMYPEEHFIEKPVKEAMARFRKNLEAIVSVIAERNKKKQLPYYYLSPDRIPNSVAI
The assay can be described thus: 5-Lipoxygenase Inhibitor in Human Leukocytes (5LOA1). The assay is classed as cell-based. The conditions noted are these: 100 μM exogenous arachidonic acid; read-out: IC50 5LOA (100)*. An excerpt: To Evaluate the Effect of Each Compounds as a 5-Lipoxygenase Inhibitor in Comparison to Standard Reference Agents in Human Leukocytes (5LOA1)
The purpose of this assay is to evaluate the activity of each compound as an inhibitor of human leukocyte 5-lipoxygenase.
Arachidonic acid and calcium ionophore A23187 are obtained from Sigma (St. Louis, MO). Silica gel plates, GF are obtained from Analtech (Newark, DE). Arachidonic acid, (1-^14 C) and 5-HETE (^3 H), 5 (S)-hydroxy-6-trans,8,11,14-cis eicosatetraenoic acid, are obtained from New England Nuclear (Boston, MA). Six percent Dextran-70 in 0.9% NaCl is obtained from Cutter Labs (Berkeley, CA).
Preparation of Leukocytes
Fresh blood from normal adult men who had not received any drugs for at least the previous five days is obtained by the Community Research Clinic (WL/PD) using venipuncture and collected into heparinized vacuotainer tubes. To every 100 ml of pooled blood is added 25 ml of dextran solution (6% dextran -70 in 0.9% sodium chloride containing 3% dextrose) and this is mixed gently in a plastic cylinder. The mixture is left to stand at room temperature for at least 90 minutes. The upper layer which is rich in leukocytes and platelets is then carefully decanted into 50 ml plastic tubes and centrifuged at about 100×g for eight minutes in an IEC centrifuge and rotor number 269 (about 600 rpm). The supernatant fluid is discarded and the pellet is resuspended in 10 ml of 0.87% ammonium chloride for exactly two minutes. This procedure is to lyse completely contaminating red blood cells. Leukocytes are then separated by centrifugation for ten minutes. The pellet is washed three times by suspension in 20 ml PBS (sodium chloride, 7.1 g; Na2 HPO4, 1.15 g; KH2 PO4, 0.2 g, and KCl, 0.2 g/L) and centrifuged as before. The final pellet is suspended in PBS containing 0.87 mM CaCl2. Viability of the cells is then checked using trypan blue exclusion method and is found to be over 90%.
5-Lipoxygenase Enzyme Assay
Cells in suspension (0.98 ml) are incubated with or without test compounds for five minutes at 37° C. in a shaking water bath. At this time a 17 μl mixture is prepared per 1 ml of cell suspension: 100 mM arachidonic acid, 1 μl, 0.05 μCi ^14 C-arachidonic acid in 5 μl; 1 mM calcium ionophore A23187, 10 μl (1). This mixture is added and the incubation continued for five minutes. The reaction is stopped by adding four volumes of absolute ethanol and the mixture is kept in ice for 30 minutes. The floculated precipitate is separated by centrifugation at about 37,000×g for 20 minutes (Beckman Instruments rotor number 40). The alcohol extract is taken to dryness under a stream of nitrogen and the residue is dissolved in 100-200 μl absolute ethanol. At the time any turbidity is removed by centrifugation. An aliquot (25-50 μl) is applied onto 20×20 cm silica gel TLC plate and developed using the following solvent system: diethyl ether, petroleum ether (20°-40° C.), acetic acid (50:50:1 v/v). Zones of 1 cm apart are scraped from the TLC plate and transferred to mini-vials. Methanol (0.5 ml) is added to dissolve the radioactivity adsorbed to the silica gel and scintillation fluid (H.P., Beckman), 5 ml is then added and vials are counted in a liquid scintillation counter. A sample of ^3 H-5-HETE is applied and used for the identification of the formed 5-HETE.
Total radioactivity in the test as well as the control samples are normalized and the amount of 5-HETE present is calculated accordingly.
IC50 values are defined as the concentrations of test agents which caused a 50% inhibition of the formation of 5-HETE as compared to control and are determined by inspection of the concentration-response curves.

In turn, `O=C(O)c1ccccc1-c1ccccc1C(=O)Nc1ccc(CCCc2ccc(Cl)c(Cl)c2)cc1` [Example 1, [1,1'-Biphenyl]-2-carboxylic acid, 2'-[[[4-[3-(3,4-dichlorophenyl)propyl]phenyl]amino]carbonyl]-] displayed an inhibition at 3 µM in assay [1] (@ 3 μM) of 90%. Also, in assay [2], the concentration for half-maximal inhibition (IC50) came to 9.6 µM. On to `O=C(O)c1ccccc1-c1ccccc1C(=O)Nc1ccc(CCc2ccc(Cl)c(Cl)c2)cc1` [Example 3, [1,1'-Biphenyl]-2-carboxylic acid, 2'-[[[4-[2-(3,4-dichlorophenyl)ethyl]phenyl]amino]carbonyl]-], for which the 50% inhibitory concentration (IC50) in assay [1] stood at 1 µM; in assay [2] it was 4.6 µM. Take `O=C(O)c1ccccc1-c1ccccc1C(=O)Nc1cccc(CCc2ccc(Cl)c(Cl)c2)c1` [Example 4, [1,1'-Biphenyl]-2-carboxylic acid, 2'-[[[3-[2-(3,4-dichlorophenyl)ethyl]phenyl]amino]carbonyl]-]: in assay [2], the 50% inhibitory concentration (IC50) stood at 9.3 µM. The same measure, in the same setting: as for `CN(C(=O)c1ccccc1-c1ccccc1C(=O)O)c1ccc(CCc2ccc(Cl)c(Cl)c2)cc1` [Example 5, [1,1'-Biphenyl]-2-carboxylic acid, 2'-[[[4-[2-(3,4-dichlorophenyl)ethyl]phenyl]methylamino]carbonyl]-], the figure is 40 µM. The same measure, in the same setting: to `COc1ccc(CCc2ccc(NC(=O)c3ccccc3-c3ccccc3C(=O)O)cc2)cc1OC` [Example 7, [1,1'-Biphenyl]-2-carboxylic acid, 2'-[[[4-[2-(3,4-dimethoxyphenyl)ethyl]phenyl]amino]carbonyl]-] belongs above 20 µM; to `CN(C(=O)c1ccccc1-c1ccccc1C(=O)O)c1ccc(CCc2ccc(Cl)cc2)cc1` [Example 8], above 20 µM; to `O=C(O)c1ccccc1-c1ccccc1C(=O)Nc1ccc(CCc2ccc(Cl)cc2)cc1` [Example 11, [1,1'-Biphenyl]-2-carboxylic acid, 2'-[[4-[2-[(4-chlorophenyl)ethyl]phenyl]amino]carbonyl]-], 12 µM.
